The source of these data is patent US20180230097A1, “PROCESS FOR PREPARATION OF APREMILAST AND NOVEL POLYMORPHS THEREOF” (LUPIN LIMITED, priority 2015, published 2018).

A short description of data set [1]: Polymorph stability under temperature/humidity storage (PXRD, FIG. 15 and 16). It is filed as physicochemical. The settings on record: 25° C. to 40° C. temperature, 5% to 75% humidity (RH); FIG. 15 25° C./60% RH/2M, FIG. 16 40° C./75% RH/2M. As to the method: The term “stable” with respect polymorph or to a drug dosage form, refers to the chemical and physical integrity of the polymorph or dosage unit and, when appropriate, the ability of the dosage unit to maintain protection against microbiological contamination.
The Form M of apremilast is stable at different set of conditions such as 25° C. to 40° C. temperature, 5% to 75% humidity (RH) for durations as depicted in FIG. 15 and FIG. 16.
Using a PANalytical X'Pert powder diffraction meter, the x-ray powder diffraction pattern was measured at room temperature using a Cu Ka filled tube (45 kV 40 mA) as the x-ray source. Data collection was done in 2theta continuous scan mode in the range of 3.5° to 40°.

Data set [2] in a line: Solubility of Form M in various media. It is filed as physicochemical. The settings on record: water, hydrochloric acid, acetate Buffer, and phosphate Buffer at different pH.

Regarding `CCOc1cc(C(CS(C)(=O)=O)N2C(=O)c3cccc(NC(C)=O)c3C2=O)ccc1OC` (centres unmarked) [Form M], the stability of polymorph result in data set [1] is “stable”. Besides, in data set [2], the “solubility in various medium” value is “good solubility”.
